Test results: patent US12264134B2 (Merck Sharp & Dohme LLC, priority 2018, dated 2025)

Columns and labels:
[1] = target: T1, IDO1 (Homo sapiens, UniProt P14902); assay: IDO1 Cellular Assay in HeLa Cells Stimulated with IFNγ; assay type: cell-based; conditions: read-out: HeLa Cell Potency, IC50
[2] = target: T1, IDO1; assay: IDO1 Human Whole blood Assay; assay type: cell-based; set-up: Human whole blood was drawn in sodium heparin coated tubes from healthy internal donors; from tissue; host or cells: human whole blood from healthy donors, stimulated with LPS and IFNγ; conditions: LPS and IFNγ stimulated, 18 h, read-out: Human Whole Blood Potency, IC50
Method in brief: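 Heparinized healthy-donor human whole blood was preincubated 15 min with compound, then stimulated with LPS and IFNγ (100 ng/mL final) for 18 h at 37 °C. Plasma kynurenine was quantified by LC/MS/MS against a D6-kynurenine internal standard, and IC50s came from 4-parameter sigmoidal fits.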

T1 sequence (P14902 whole entry): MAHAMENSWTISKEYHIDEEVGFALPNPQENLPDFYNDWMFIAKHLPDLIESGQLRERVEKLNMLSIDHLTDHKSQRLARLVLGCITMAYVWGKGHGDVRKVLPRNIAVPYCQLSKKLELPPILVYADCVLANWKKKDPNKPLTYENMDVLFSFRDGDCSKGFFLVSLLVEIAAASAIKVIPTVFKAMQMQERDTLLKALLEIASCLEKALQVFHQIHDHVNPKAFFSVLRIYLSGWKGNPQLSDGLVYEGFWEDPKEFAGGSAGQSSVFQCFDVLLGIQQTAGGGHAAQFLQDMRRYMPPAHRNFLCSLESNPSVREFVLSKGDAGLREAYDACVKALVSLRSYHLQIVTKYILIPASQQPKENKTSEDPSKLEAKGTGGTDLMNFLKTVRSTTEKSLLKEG

| IC50 [1] [nM] | IC50 [2] [nM] | SMILES |
| --- | --- | --- |
| 5 | 1000 | Cc1cccc(N2CCN(C(=O)Cn3nc(C(=O)N4C[C@@H](C)O[C@@H](C)C4)c4c3CCC4)C3(CC3)C2)c1C [Example 391, 2-(3-((2S,6R)-2.6-dimethylmorpholine-4-carbonyl)-5,6-dihydrocyclopenta[c]pyrazol-1(4H)-yl)-1-(7-(2,3-dimethylphenyl)-4.7-diazaspiro[2.5]octan-4-yl)ethanone] |
| 3.58 | 180 | Cc1c(Cl)cccc1N1CCN(C(=O)Cn2nc(C(=O)N3CCN(C(=O)CO)CC3)c3c2CCCC3)CC1 [Example 405, 1-(4-(3-chloro-2-methylphenyl)piperazin-1-yl)-2-(3-(4-(2-hydroxyacetyl)piperazine-1-carbonyl)-4,5,6,7-tetrahydro-1H-indazol-1-yl)ethanone] |
| 3 | 306 | Cc1c(Cl)cccc1N1CCN(C(=O)Cn2nc(C(=O)N3CC[C@@H](O)[C@@H](F)C3)c3c2CCCC3)CC1 [Example 406, 1-(4-(3-chloro-2-methylphenyl)piperazin-1-yl)-2-(3-((3S,4R)-3-fluoro-4-hydroxypiperidine-1-carbonyl)-4,5,6,7-tetrahydro-1H-indazol-1-yl)ethanone] |
| 3.54 | 365 | Cc1c(Cl)cccc1N1CCN(C(=O)Cn2nc(C(=O)N3CCC(O)CC3)c3c2C(F)(F)[C@H]2C[C@@H]32)CC1 [Example 448, 1-(4-(3-chloro-2-methylphenyl)piperazin-1-yl)-2-((3bR,4aS)-5,5-difluoro-3-(4-hydroxypiperidine-1-carbonyl)-3b,4,4a,5-tetrahydro-1H-cyclopropa[3,4]cyclopenta[1,2-c]pyrazol-1-yl)ethanone] |
| 7.99 | 543 | Cc1cccc(N2CCN(C(=O)Cn3nc(C(=O)N4C[C@@H](C)O[C@@H](C)C4)c4c3C3CC3C4)CC2)c1C (stereo partly drawn) [Example 449, 2-(3-((2R,6S)-2,6-dimethylmorpholine-4-carbonyl)-4,4a,5,5a-tetrahydro-1H-cyclopropa[4,5]cyclopenta[1,2-c]pyrazol-1-yl)-1-(4-(2,3-dimethylphenyl)piperazin-1-yl)ethanone] |
| 1.83 | 152 | Cc1cccc(N2CCN(C(=O)Cn3nc(C(=O)N4CCC(O)CC4)c4c3CCCC4)CC2)c1Cl [Example 450, 1-(4-(2-chloro-3-methylphenyl)piperazin-1-yl)-2-(3-(4-hydroxypiperidine-1-carbonyl)-4,5,6,7-tetrahydro-1H-indazol-1-yl)ethanone] |
| 1.2 | 36 | Cc1c(F)ccc(N2CCN(C(=O)Cn3nc(C(=O)N4CCC(O)CC4)c4c3CCCC4)CC2)c1C [Example 451, 1-(4-(4-fluoro-2,3-dimethylphenyl)piperazin-1-yl)-2-(3-(4-hydroxypiperidine-1-carbonyl)-4,5,6,7-tetrahydro-1H-indazol-1-yl)ethanone] |
| 2.82 | 68 | Cc1cccc(N2CCN(C(=O)Cn3nc(C(=O)N4CCN(CC(N)=O)CC4)c4c3CCCC4)CC2)c1C [Example 454, 2-(4-(1-(2-(4-(2,3-dimethylphenyl)piperazin-1-yl)-2-oxoethyl)-4,5,6,7-tetrahydro-1H-indazol-3-carbonyl)piperazin-1-yl) acetamide] |
| 21.4 | 102 | Cc1c(F)cccc1N1CCN(C(=O)Cn2nc(C(=O)N3CCC(OCCO)CC3)c3c2CCC3)CC1 [Example 456, 1-(4-(3-fluoro-2-methylphenyl)piperazin-1-yl)-2-(3-(4-(2-hydroxyethoxy)piperidine-1-carbonyl)-5,6-dihydrocyclopenta[c]pyrazol-1(4H)-yl) ethanone] |
| 1.75 | 307 | Cc1cccc(N2CCN(C(=O)Cn3nc(C(=O)N4CC[C@@H](O)[C@@H](F)C4)c4c3CCCC4)CC2)c1Cl [Example 457, 1-(4-(2-chloro-3-methylphenyl)piperazin-1-yl)-2-(3-((3S,4R)-3-fluoro-4-hydroxy-piperidine-1-carbonyl)-4,5,6,7-tetrahydro-1H-indazol-1-yl)ethanone] |
| 1.32 | 103 | Cc1c(F)ccc(N2CCN(C(=O)Cn3nc(C(=O)N4CC[C@@H](O)[C@@H](F)C4)c4c3CCCC4)CC2)c1C [Example 462, 1-(4-(4-fluoro-2,3-dimethylphenyl)piperazin-1-yl)-2-(3-((3S,4R)-3-fluoro-4-hydroxy-piperidine-1-carbonyl)-4,5,6,7-tetrahydro-1H-indazol-1-yl)ethanone,] |
| 1.37 | 37 | Cc1cccc(N2CCN(C(=O)Cn3nc(C(=O)N4CCC(OCCO)CC4)c4c3CCCC4)CC2)c1C [Example 463, 1-(4-(2,3-dimethylphenyl)piperazin-1-yl)-2-(3-(4-(2-hydroxyethoxy)piperidine-1-carbonyl)-4,5,6,7-tetrahydro-1H-indazol-1-yl)ethanone] |
| 1.38 | 135 | Cc1c(F)ccc(N2CCN(C(=O)Cn3nc(C(=O)N4CCC(O)CC4(C)C)c4c3CCCC4)CC2)c1C (centres unmarked) [Example 464, 1-(4-(4-fluoro-2,3-dimethylphenyl)piperazin-1-yl)-2-(3-(4-hydroxy-2,2-dimethyl-piperidine-1-carbonyl)-4,5,6,7-tetrahydro-1H-indazol-1-yl)ethanone] |
| 1.47 | 87 | Cc1c(F)ccc(N2CCN(C(=O)Cn3nc(C(=O)N4CC[C@H](O)[C@H](F)C4)c4c3CCCC4)CC2)c1C [Example 465, 1-(4-(4-fluoro-2,3-dimethylphenyl)piperazin-1-yl)-2-(3-((3R,4S)-3-fluoro-4-hydroxypiperidine-1-carbonyl)-4,5,6,7-tetrahydro-1H-indazol-1-yl)ethanone] |
| 1.69 | 233 | Cc1cccc(N2CCN(C(=O)Cn3nc(C(=O)N4CCC(O)CC4)c4c3CCCC4)CC2)c1C [Example 466, 1-(4-(2,3-dimethylphenyl)piperazin-1-yl)-2-(3-(4-hydroxy-piperidine-1-carbonyl)-4,5,6,7-tetrahydro-1H-indazol-1-yl)ethanone] |
| 1.9 | 88 | Cc1cccc(N2CCN(C(=O)Cn3nc(C(=O)N4CC[C@H](O)[C@@H](F)C4)c4c3CCCC4)CC2)c1C [Example 468, 1-(4-(2,3-dimethylphenyl)piperazin-1-yl)-2-(3-((3S,4S)-3-fluoro-4-hydroxypiperidine-1-carbonyl)-4,5,6,7-tetrahydro-1H-indazol-1-yl)ethanone] |
| 2.62 | 31 | Cc1cccc(N2CCN(C(=O)Cn3nc(C(=O)N4CCO[C@@H](CO)C4)c4c3CCCC4)CC2)c1C [Example 470, (R)-1-(4-(2,3-dimethylphenyl)piperazin-1-yl)-2-(3-(2-(hydroxymethyl)morpholine-4-carbonyl)-4,5,6,7-tetrahydro-1H-indazol-1-yl)ethanone] |
| 2.63 | 65 | CC(=O)NC1CCN(C(=O)c2nn(CC(=O)N3CCN(c4cccc(C)c4C)CC3)c3c2CCCC3)CC1 [Example 471, N-(1-(1-(2-(4-(2,3-dimethylphenyl)piperazin-1-yl)-2-oxoethyl)-4,5,6,7-tetrahydro-1H-indazole-3-carbonyl)piperidin-4-yl) acetamide] |
| 3.37 | 208 | Cc1cccc(N2CCN(C(=O)Cn3nc(C(=O)N4CC[C@@H](O)[C@H](F)C4)c4c3CCCC4)CC2)c1C [Example 472, 1-(4-(2,3-dimethylphenyl)piperazin-1-yl)-2-(3-((3R,4R)-3-fluoro-4-hydroxypiperidine-1-carbonyl)-4,5,6,7-tetrahydro-1H-indazol-1-yl)ethanone] |
